Here are results for 19 molecules from patent US20230096766A1, “AMINO ACID HAVING FUNCTIONAL GROUP CAPABLE OF INTERMOLECULAR HYDROGEN BONDING, PEPTIDE COMPOUND CONTAINING SAME AND METHOD FOR PRODUCTION THEREOF” (Chugai Seiyaku Kabushiki Kaisha, priority 2018, published 2023).

For data set [1], the system named is Caco-2. In words: Membrane permeability test of cyclic peptides (Caco-2, modified/improved method of WO 2018/124162).
Assay in data set [2]: as above
The settings on record: human, Caco-2, Caco-2 (cm/sec).

Data set [3] in a line: Actual measurement of pKa of amino acid side chains by titration (Sirius T3) on three-residue peptides. The conditions noted are these: for basic pKa / pKa: measured by titration (Sirius T3), 25° C., 0.15M; for basic pKa: amino acid X in three-residue peptide ZMeGly-X-MeGly-pip (Table 24); for pKa: amino acid X in three-residue peptide ZMeGly-X-MeGly-pip (Table 24, second part). It counts as physicochemical. The protocol: pKas and basic pKas can be determined by a conventional method. For example, they can be measured by a method such as that described in Experimental Chemistry Lecture 5, “Thermal Measurements and Equilibrium”, p. 460 (edited by The Chemical Society of Japan, published by Maruzen Co., Ltd.). More specifically, they can be measured by a method described in Reference Example 3-1.
Herein, measurement of pKas of amino acid side chains was carried out according to the following procedure.
Sirius T3 (Sirius Analytical Instruments Ltd., Forest Row, East Sussex, RH18 5DW, UK)
0.15 M KCl was added to about 1 mg of a test substance as a powder or in about 100 μL of a 10 mM DMSO solution. When the test substance was a basic compound, 0.5 M HCl was added until pH 2 and the test substance was then titrated to pH 12 with 0.5 M KOH.
When the test substance was an acidic compound, 0.5 M KOH was added until pH 12 and the test substance was then titrated to pH 2 with 0.5 M HCl.
Titration operations were automatically performed by T3 manufactured by Sirius, and pKas were determined from the resulting titration curves using Sirius T3 Refinement software.
pKas were similarly determined using imipramine HCl, propranolol HCl, and warfarin as reference compounds, and were confirmed to be within the test results obtained in Sirius. pKas of amino acid side chains were determined by synthesizing a sequence in which the amino acid to be evaluated is introduced into the second residue (the position X in the following table) of a peptide composed of three residues as shown below.

Data set [4] is described as follows: in vitro. The settings on record: human, Caco-2, Caco-2 (cm/sec).
Data set [5] relates to Caco-2.
[6] abbreviates: amino acid side chain, Sirius T3 titration.
[7] abbreviates: membrane permeability of cyclic peptides, Caco-2.

Read-outs that look alike come from different tables or passages of the source. Where a SMILES comes first, the peptide text is derived from it. Bridges are numbered along the chain shown (N, C = ends). [ ]: non-standard residue; d: D form. The star is where a group is joined. NMeHph(3-OMe-4-CONHMe) = CNC(=O)c1ccc(CC[C@H](NC)C(=O)O)cc1OC; NMeAbu(3,3-F2-piperidino) = CN[C@@H](CCN1CCCC(F)(F)C1)C(=O)O; Ethyl(2-morpholino) = C1CN(CC*)CCO1; NMeF = CN[C@@H](Cc1ccccc1)C(=O)O; NMeD = CN[C@@H](CC(=O)O)C(=O)O; CH2CONHtBu = CC(C)(C)NC(=O)C*; NMeL = CN[C@@H](CC(C)C)C(=O)O; NMeV = CN[C@H](C(=O)O)C(C)C; NMeAbu = CC[C@H](NC)C(=O)O; NMeA = CN[C@@H](C)C(=O)O; Piperidide = C1CCN(*)CC1; NBuGly = CCCCNCC(=O)O; NPrGly = CCCNCC(=O)O; Bn = c1ccc(C*)cc1; Sar = CNCC(=O)O; tBu = CC(C)(C)*

By Papp is commonly meant a coefficient for how fast a substance crosses the barrier. In turn, `CC[C@H](C)[C@@H]1NC(=O)[C@H](CC(C)C)N(C)C(=O)CN(C)C(=O)[C@H]([C@@H](C)O)NC(=O)[C@H](Cc2ccccc2)N(C)C(=O)[C@H](CC(C)C)NC(=O)[C@H](Cc2ccccc2)N(C)C(=O)[C@@H](CC(C)C)NC(=O)C[C@@H](C(=O)N2CCCCC2)NC(=O)[C@H](CC(C)C)N(C)C(=O)[C@H](Cc2ccccc2)N(C)C1=O` [pd225] ([dL][NMeF]L[NMeF]T[Sar][NMeL]I[NMeF][NMeL]D-Piperidide; lactam N-11) yielded an apparent permeability (Papp) (Caco-2, Caco-2 (cm/sec)) of 1 ×10⁻⁶ cm/s. For the setting “Caco-2, Caco-2 (cm/sec) Papp”, `CC(C)C[C@@H]1NC(=O)CN(C)C(=O)[C@H](Cc2ccccc2)N(C)C(=O)[C@@H](C)NC(=O)C[C@@H](C(=O)N2CCCCC2)NC(=O)[C@H](Cc2ccccc2)N(C)C(=O)[C@H](Cc2ccccc2)N(C)C(=O)[C@H](COC(C)(C)C)NC(=O)[C@H](CC(C)C)N(C)C(=O)[C@H](Cc2ccccc2)NC(=O)[C@H]([C@@H](C)O)NC1=O` [pd248] ([dA][NMeF][Sar]LTF[NMeL]S(tBu)[NMeF][NMeF]D-Piperidide; lactam N-11) had a Papp of 0.014 ×10⁻⁶ cm/s. As for `CC(C)C[C@@H]1NC(=O)[C@H](Cc2ccccc2)N(C)C(=O)[C@@H](C(C)C)NC(=O)C[C@@H](C(=O)N2CCCCC2)NC(=O)[C@H](C(C)C)N(C)C(=O)[C@H](Cc2ccccc2)N(C)C(=O)[C@H](COC(C)(C)C)NC(=O)[C@H](CCN2CCCC(F)(F)C2)N(C)C(=O)CN(C)C(=O)[C@H]([C@@H](C)O)NC(=O)[C@H](CC(C)C)N(C)C1=O` [pd387] ([dV][NMeF]L[NMeL]T[Sar][NMeAbu(3,3-F2-piperidino)]S(tBu)[NMeF][NMeV]D-Piperidide; lactam N-11), the Papp (Caco-2, Caco-2) worked out at 3.5 ×10⁻⁶ cm/s. As for `CC(C)C[C@@H]1NC(=O)[C@H](C)N(C)C(=O)C[C@@H](C(=O)N2CCCCC2)NC(=O)[C@H](CC(C)C)N(C)C(=O)CN(C)C(=O)[C@H]([C@@H](C)O)NC(=O)[C@H](C)N(C)C(=O)[C@H](Cc2ccccc2)N(C)C(=O)[C@H](COCc2ccccc2)NC(=O)[C@H](Cc2ccccc2)N(C)C(=O)[C@H](CC(C)C)N(C)C1=O` [pd179] ([NMeA]L[NMeL][NMeF]S(Bn)[NMeF][NMeA]T[Sar][NMeL]D-Piperidide; lactam N-11), the “Caco-2” value in data set [1] (Table 36, Papp, sequences having Papp ≥ 1.0 × 10^−6 at ARC = 3) amounted to 2e-06 cm/s. The same molecule yielded an apparent permeability coefficient (Papp) in data set [2] (Table 35, Papp, sequences having Papp ≥ 1.0 × 10^−6 at ARC = 3) of 2 ×10⁻⁶ cm/s. For the molecule `CN(C)CCOC[C@H](N)C(=O)O` [Ser(Et-2-NMe2)], the “measured basic pKa” value in data set [3] (setting [6]) turned out to be 9.1. As for `CNC(=O)c1ccc(CC[C@H]2C(=O)N[C@@H]([C@@H](C)O)C(=O)N(C)CC(=O)N(C)[C@@H](CC(C)C)C(=O)N[C@@H](CC(C)C)C(=O)N(C)[C@@H](Cc3ccccc3)C(=O)N(C)[C@@H](CC(C)C)C(=O)N[C@H](C(=O)N3CCCCC3)CC(=O)N[C@H](C(C)C)C(=O)N(C)[C@@H](CC(C)C)C(=O)N[C@@H](C(C)C)C(=O)N2C)cc1OC` [AP226] ([dV][NMeL]V[NMeHph(3-OMe-4-CONHMe)]T[Sar][NMeL]L[NMeF][NMeL]D-Piperidide; lactam N-11), in data set [1] (setting [7]), the “Caco-2” value was found to be 1e-06 cm/s. In data set [2] (setting [7]), this molecule had a Papp of 0.57 ×10⁻⁶ cm/s. Regarding `CS(=O)(=O)NC(=O)CC[C@H](N)C(=O)O` [Gln(Ms)], in data set [3] (setting [6]), the “measured pKa” value is listed as 3.8.

With `N[C@@H](COCCN1CCOCC1)C(=O)O` [Ser(Et-2-Mor)], the “basic pKa” value in data set [3] stood at 7.2. Turning to `CC(C)C[C@@H]1NC(=O)[C@H](Cc2ccccc2)N(C)C(=O)[C@@H](C)NC(=O)C[C@@H](C(=O)N2CCCCC2)N(C)C(=O)[C@H](Cc2ccccc2)N(C)C(=O)[C@H](Cc2ccccc2)N(C)C(=O)[C@H](COC(C)(C)C)NC(=O)[C@H](CC(C)C)N(C)C(=O)CN(C)C(=O)[C@H]([C@@H](C)O)NC(=O)[C@H](CC(C)C)N(C)C1=O` [pd224] ([dA][NMeF]L[NMeL]T[Sar][NMeL]S(tBu)[NMeF][NMeF][NMeD]-Piperidide; lactam N-11), the Papp (Caco-2, Caco-2 (cm/sec)) was 1 ×10⁻⁶ cm/s. Usually pKa stands for the negative logarithm of the acid dissociation constant. High values mean a group that holds its proton tightly, low ones a group that gives up its proton readily. In data set [3], `CN[C@@H](CCc1noc(=O)[nH]1)C(=O)O` [MeAbu(5-Oxo-Odz)] had a pKa of 5.7.

In data set [3], `CN[C@@H](CCN1CCCC(F)(F)C1)C(=O)O` [MeAbu(pip-3-F2)] yielded a pKa of 5.7. In data set [1] (Papp, membrane permeability, cyclic peptides comprising MeAbu(pip-4-F2), MeAbu(Mor), Ser(Et-2-Mor), MeAbu(pip-3-F2) or Abu(5-Oxo-Odz) (Table 29)), `CCCCN1CC(=O)N(C)[C@@H](CC(C)C)C(=O)N[C@H](C(=O)N2CCCCC2)CC(=O)N(C)[C@@H](CC)C(=O)N[C@@H](CC(C)C)C(=O)N(C)[C@@H](CC(C)C)C(=O)N(C)[C@@H](Cc2ccccc2)C(=O)N[C@@H](COCCN2CCOCC2)C(=O)N(C)[C@@H](CC)C(=O)N(C)[C@@H](CC(C)C)C(=O)N[C@@H]([C@@H](C)O)C1=O` [pd482] ([NMeAbu]L[NMeL][NMeF]S(Ethyl(2-morpholino))[NMeAbu][NMeL]T[NBuGly][NMeL]D-Piperidide; lactam N-11) registered a Caco-2 of 1.1e-06 cm/s. As to `CN[C@@H](CCN1CCOCC1)C(=O)O` [MeAbu(Mor)], the “basic pKa” value in data set [3] was 6.8.

As for `CC(C)(CO)COC[C@H](N)C(=O)O` [Ser(2-Me2-PrOH), O-(3-hydroxy-2,2-dimethylpropyl)-L-serine], in data set [1] (pairwise comparison of matched cyclic peptides, result in words), the “membrane permeability compared with counterpart peptides” value is “tended to have better membrane permeability than Ser(nPrOH)”.

Take `CN[C@@H](CCN1CCC(F)(F)CC1)C(=O)O` [MeAbu(pip-4-F2)]: the “basic pKa” value in data set [3] is 6.7. Consider `CCCN1CC(=O)N(C)[C@@H](CC(C)C)C(=O)N[C@@H](CC(C)C)C(=O)N(C)[C@@H](Cc2ccccc2)C(=O)N(C)[C@@H](C)C(=O)N[C@H](C(=O)N2CCCCC2)CC(=O)N[C@H](CC(C)C)C(=O)N(C)[C@@H](Cc2ccccc2)C(=O)N[C@@H](COCC(=O)NC(C)(C)C)C(=O)N(C)[C@@H](CC(C)C)C(=O)N[C@@H]([C@@H](C)O)C1=O` [AP11] ([dL][NMeF]S(CH2CONHtBu)[NMeL]T[NPrGly][NMeL]L[NMeF][NMeA]D-Piperidide; lactam N-11), for which the “Caco-2” value in data set [1] (setting [7]) was determined as 1.1e-06 cm/s. Turning to `CCCN1CC(=O)N(C)[C@@H](Cc2ccccc2)C(=O)N[C@@H]([C@@H](C)CC)C(=O)N(C)[C@@H](Cc2ccccc2)C(=O)N[C@@H]([C@@H](C)O)C(=O)N(C)CC(=O)N(C)[C@@H](Cc2ccccc2)C(=O)N(C)[C@@H](CC(C)C)C(=O)N[C@@H](COC(C)(C)C)C(=O)N(C)[C@@H](C(C)C)C(=O)N[C@H](C(=O)N2CCCCC2)CC1=O` [pd195] ([NPrGly][NMeF]I[NMeF]T[Sar][NMeF][NMeL]S(tBu)[NMeV]D-Piperidide; lactam N-11), the Papp in data set [4] was 5 ×10⁻⁶ cm/s. Also, the “Caco-2” value in data set [5] came to 5e-06 cm/s. On the same counts, the results for `CC(C)C[C@H]1C(=O)N[C@@H](COC(C)(C)C)C(=O)N(C)[C@@H](Cc2ccccc2)C(=O)N(C)[C@@H](C(C)C)C(=O)N[C@H](C(=O)N2CCCCC2)CC(=O)N[C@H](C(C)C)C(=O)N(C)[C@@H](Cc2ccccc2)C(=O)N[C@@H](COc2cccc(Cl)c2)C(=O)N(C)[C@@H](C)C(=O)N[C@@H]([C@@H](C)O)C(=O)N(C)CC(=O)N1C` [pd187] are 1.9 ×10⁻⁶ cm/s and 1.9e-06 cm/s. In data set [4], `CC(C)C[C@@H]1NC(=O)[C@H](Cc2ccccc2)N(C)C(=O)[C@@H]2CCCN2C(=O)C[C@@H](C(=O)N2CCCCC2)N(C)C(=O)[C@H](Cc2ccccc2)N(C)C(=O)[C@H](Cc2ccccc2)N(C)C(=O)[C@H](COC(C)(C)C)NC(=O)[C@H](C(C)C)N(C)C(=O)CN(C)C(=O)[C@H]([C@@H](C)O)NC(=O)[C@H](CC(C)C)N(C)C1=O` [pd196] (P[NMeF]L[NMeL]T[Sar][NMeV]S(tBu)[NMeF][NMeF][NMeD]-Piperidide; lactam N-11) returned a Papp of 4 ×10⁻⁶ cm/s. The “Caco-2” value in data set [5] turned out to be 4e-06 cm/s.
